Values of other authors in patent US6645994B1, “Method of treating dry eye disorders” (Alcon, Inc., priority 2001, dated 2003).

What was measured:
acyl-CoA synthetase = conditions: compared with triacsins A, B and C
mucin subtype MUC1 = conditions: literature report, Cornea 2000
[1] = system: soluble goblet cell mucins (MUC2, MUC5AC); conditions: literature report, Cornea 2000

SMILES	relative potency as acyl-CoA synthetase inhibitor among triacsins (acyl-CoA synthetase)	secretion of mucin subtype MUC1 (mucin subtype MUC1)	secretion of soluble goblet cell mucins (MUC2, MUC5AC) [1]
CC/C=C/C=C/C=C/C=C/C=NN=NO [Triacsin C, 1-hydroxy-3-(E,E,E,E-2′4′6′8′-undecatetraenylidine) triazene]	most potent of these compounds	–	–
CCCCC[C@H](O)/C=C/C=C\C/C=C\C/C=C\CCCC(=O)O [15(S)-HETE]	–	effective secretagogue	inability of 15(S)-HETE to stimulate secretion
